According to publication PMC10517971, “An inverse agonist of orphan receptor GPR61 acts by a G protein-competitive allosteric mechanism” (Nature Communications, 2023):

Biological target: BRD4 (Homo sapiens, UniProt O60885)
Assay: Bromodomain-Containing Protein 4 (BRD4) fluorescence polarization Binding Assay
Procedure: 45 37 °C for 30 min (DAT) or 60 min (NET and SER T). The plate is transferred to the FLIPR Tetra®
46 instrument and the fluorescence of each well was measured (Ex 470- 495 […]).
47 The level of fluores cenc e measured dire ctly relates to the level of uptake of the dye labelled amine,
48 with a reduction in levels being related to an inhibition of the respective transporter.
49 Phosphodiesterase Assays
50 The phosphodiesteras e (P DE) assays m easure the conversion of 3’, 5 ’ -[3H ] cAMP to 5’-[3H] AMP
51 (for PDE 3A1 and 4D3) or 3’, 5’-[3H] cGMP to 5’-[3H] GMP (for 5A1) by the relevant PDE
52 enzyme subtype. Yttrium silicate (YSi) scintillation proximity (SPA) beads bind selectively to 5’-
53 [3H] AMP or 5’-[3H] GMP, with the magnitude of radioactive counts being directly related to
54 PDE enzymatic activity. The ass ay was performed in white walled op aque b ottom 384-well plates.
55 Test compound (1 µL) in dimethyl sulfoxide was added to each well. Enzyme solution was then […]
60 Waltham, MA). Followin g an additional 8 h incubation period the plates were read on a MicroBeta […]
71 temperature fluorescence polarization measurements were made using an Envision plate reader […]
76 of the product color, measured at 405 nm, is proportionate to the enzyme activity in the sample. […]
81 read at the 20 min time point. […]

CCOc1cc(C)nc(N(CCOC)S(=O)(=O)c2ccc(NCc3c(F)cncc3F)nc2OC)n1 [Compound 1]
IC50: > 25 µM
